Measurements reported in US10428083B2, “Heterocyclylmethyl-thienouracile as antagonists of the adenosine-A2B-receptor” (BAYER PHARMA AKTIENGESELLSCHAFT, priority 2015, dated 2019).

Target: human adenosine A2b receptor (Homo sapiens (Human), UniProt P29275)
Assay: Cellular in vitro reporter gene test for A2b receptor activity (CHO-K1, CRE-luciferase, NECA stimulation)
Assay type: cell-based
Details: recombinant CHO-K1 cell line, CRE-luciferase reporter, antagonism of EC50 concentration of NECA; in some cases means of several determinations, rounded to two significant figures; read-out: A2b receptor IC50
Outline: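 CHO-K1 cells with CRE-driven luciferase; antagonists co-incubated with NECA at its EC50, determined in a pre-experiment on each test day. Luciferase read by luminescence 3 h after NECA addition.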

Chain of human adenosine A2b receptor (P29275 whole entry): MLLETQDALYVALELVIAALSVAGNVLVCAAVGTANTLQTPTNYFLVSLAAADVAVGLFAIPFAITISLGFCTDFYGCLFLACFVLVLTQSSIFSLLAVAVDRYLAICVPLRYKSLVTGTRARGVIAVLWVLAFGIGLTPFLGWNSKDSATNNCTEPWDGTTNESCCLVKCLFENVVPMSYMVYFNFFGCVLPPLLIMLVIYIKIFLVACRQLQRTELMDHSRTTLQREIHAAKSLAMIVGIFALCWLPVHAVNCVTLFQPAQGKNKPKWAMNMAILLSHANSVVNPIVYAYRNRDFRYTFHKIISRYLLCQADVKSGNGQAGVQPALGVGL

Row | Compound | IC50 [µM]
1 | Cc1c(CN2CCNC2=O)sc2c1c(=O)n(CC(C)C)c(=O)n2CC1CCOC1 (racemic) [Example 90, 3-Isobutyl-5-methyl-6-[(2-oxoimidazolidin-1-yl)methyl]-1-(tetrahydrofuran-3-ylmethyl)thieno[2,3-d]pyrimidine-2,4(1H,3H)-dione (racemate)] | 0.012
2 | Cc1c(CN2CCNC2=O)sc2c1c(=O)n(CC(F)F)c(=O)n2CCCF [Example 95, 3-(2,2-Difluoroethyl)-1-(3-fluoropropyl)-5-methyl-6-[(2-oxoimidazolidin-1-yl)methyl]thieno[2,3-d]pyrimidine-2,4(1H,3H)-dione] | 0.011
3 | Cc1c(CN2CCNC2=O)sc2c1c(=O)n(CC(F)F)c(=O)n2CCC(F)(F)F [Example 214, 3-(2,2-Difluoroethyl)-5-methyl-6-[(2-oxoimidazolidin-1-yl)methyl]-1-(3,3,3-trifluoropropyl)thieno[2,3-d]pyrimidine-2,4(1H,3H)-dione] | 0.0031
4 | C=CCn1cnn(Cc2sc3c(c2C)c(=O)n(CC)c(=O)n3CF)c1=O [Example 349, 6-[(4-Allyl-5-oxo-4,5-dihydro-1H-1,2,4-triazol-1-yl)methyl]-3-ethyl-1-(fluoromethyl)-5-methylthieno[2,3-d]pyrimidine-2,4(1H,3H)-dione] | 0.63
5 | CCn1c(=O)c2c(C)c(CN3CCNC3=S)sc2n(CCOC)c1=O [Example 31, 3-Ethyl-1-(2-methoxyethyl)-5-methyl-6-[(2-thioxoimidazolidin-1-yl)methyl]thieno[2,3-d]pyrimidine-2,4(1H,3H)-dione] | 0.0022
6 | COCCn1c(=O)c2c(C)c(CN3CCNC3=NC(=O)OC)sc2n(CCOC)c1=O [Example 386, Methyl [1-{[1,3-bis(2-methoxyethyl)-5-methyl-2,4-dioxo-1,2,3,4-tetrahydrothieno[2,3-d]pyrimidin-6-yl]methyl}imidazolidin-2-ylidene]carbamate] | 0.016
7 | Cc1c(CN2CCNC2=O)sc2c1c(=O)n(CC(C)(C)C)c(=O)n2CCC(F)(F)F [Example 200, 3-(2,2-Dimethylpropyl)-5-methyl-6-[(2-oxoimidazolidin-1-yl)methyl]-1-(3,3,3-trifluoropropyl)thieno[2,3-d]pyrimidine-2,4(1H,3H)-dione] | 0.0029
8 | COCCn1c(=O)n(CC2CCCO2)c(=O)c2c(C)c(CN3CCNC3=O)sc21 (single isomer, unassigned) [Example 333, 1-(2-Methoxyethyl)-5-methyl-6-[(2-oxoimidazolidin-1-yl)methyl]-3-(tetrahydrofuran-2-ylmethyl)thieno[2,3-d]pyrimidine-2,4(1H,3H)-dione] | 0.11
9 | CCn1c(=O)c2c(C)c(Cn3c(C)c[nH]c3=O)sc2n(CCC(F)(F)F)c1=O [Example 251, 3-Ethyl-5-methyl-6-[(5-methyl-2-oxo-2,3-dihydro-1H-imidazol-1-yl)methyl]-1-(3,3,3-trifluoropropyl)thieno[2,3-d]pyrimidine-2,4(1H,3H)-dione] | 0.0013

Continued by falling IC50, values first:

Row | IC50 [µM] | Compound
10 | 0.048 | Cc1c(Cn2nc[nH]c2=O)sc2c1c(=O)n(C(C)C(F)(F)F)c(=O)n2CCC(F)(F)F (racemic) [Example 437, 5-Methyl-6-[(5-oxo-4,5-dihydro-1H-1,2,4-triazol-1-yl)methyl]-3-(1,1,1-trifluoropropan-2-yl)-1-(3,3,3-trifluoropropyl)thieno[2,3-d]pyrimidine-2,4(1H,3H)-dione]
11 | 0.046 | COCCn1c(=O)n(CC(C)(C)OC)c(=O)c2c(C)c(CN3CCNC(=O)C3=O)sc21 [Example 281, 6-[(2,3-Dioxopiperazin-1-yl)methyl]-1-(2-methoxyethyl)-3-(2-methoxy-2-methylpropyl)-5-methylthieno[2,3-d]pyrimidine-2,4(1H,3H)-dione]
12 | 0.045 | Cc1c(CN2CCNC(=O)C2=O)sc2c1c(=O)n(CC(C)(C)C)c(=O)n2CC1CCCO1 (racemic) [Example 483, 3-(2,2-Dimethylpropyl)-6-[(2,3-dioxopiperazin-1-yl)methyl]-5-methyl-1-(tetrahydrofuran-2-ylmethyl)thieno[2,3-d]pyrimidine-2,4(1H,3H)-dione]
13 | 0.03 | Cc1c(Cn2[nH]ccc2=O)sc2c1c(=O)n(CC(F)(F)F)c(=O)n2CCC(F)(F)F [Example 282, 5-Methyl-6-[(5-oxo-2,5-dihydro-1H-pyrazol-1-yl)methyl]-3-(2,2,2-trifluoroethyl)-1-(3,3,3-trifluoropropyl)thieno[2,3-d]pyrimidine-2,4(1H,3H)-dione]
14 | 0.026 | Cc1c(CN2CCNC2=S)sc2c1c(=O)n(CC(F)(F)F)c(=O)n2CC1CCO1 (single isomer, unassigned) [Example 155, 5-Methyl-1-(oxetan-2-ylmethyl)-6-[(2-thioxoimidazolidin-1-yl)methyl]-3-(2,2,2-trifluoroethyl)thieno[2,3-d]pyrimidine-2,4(1H,3H)-dione]
15 | 0.022 | COC(=O)N=C1NCCN1Cc1sc2c(c1C)c(=O)n(C(C)C)c(=O)n2CC1CCCO1 (single isomer, unassigned) [Example 460, Methyl [1-{[3-isopropyl-5-methyl-2,4-dioxo-1-(tetrahydrofuran-2-ylmethyl)-1,2,3,4-tetrahydrothieno[2,3-d]pyrimidin-6-yl]methyl}imidazolidin-2-ylidene]carbamate]
16 | 0.013 | CCn1c(=O)c2c(C)c(CN3CCNC3=NC#N)sc2n(CCC(F)(F)F)c1=O [Example 255, [1-{[3-Ethyl-5-methyl-2,4-dioxo-1-(3,3,3-trifluoropropyl)-1,2,3,4-tetrahydrothieno[2,3-d]pyrimidin-6-yl]methyl}imidazolidin-2-ylidene]cyanamide]
17 | 0.009 | [2H]C([2H])(c1sc2c(c1C)c(=O)n(CC)c(=O)n2CCOC)N1CCNC1=O [Example 415, 3-Ethyl-1-(2-methoxyethyl)-5-methyl-6-[(2-oxoimidazolidin-1-yl)(dideutero)methyl]thieno[2,3-d]pyrimidine-2,4(1H,3H)-dione]
18 | 0.0078 | COCCn1c(=O)n(CC(C)(C)C)c(=O)c2c(C)c(CN3CCNC3=O)sc21 [Example 202, 3-(2,2-Dimethylpropyl)-1-(2-methoxyethyl)-5-methyl-6-[(2-oxoimidazolidin-1-yl)methyl]thieno[2,3-d]pyrimidine-2,4(1H,3H)-dione]
19 | 0.0063 | CCn1c(=O)c2c(C)c(CN3CCNC3=S)sc2n(CC2CCCO2)c1=O (racemic) [Example 35, 3-Ethyl-5-methyl-1-(tetrahydrofuran-2-ylmethyl)-6-[(2-thioxoimidazolidin-1-yl)methyl]thieno[2,3-d]pyrimidine-2,4(1H,3H)-dione (racemate)]
20 | 0.0041 | CCn1c(=O)c2c(C)c(CN3CCNC3=O)sc2n(CC2CC2(F)F)c1=O (racemic) [Example 54, 1-[(2,2-Difluorocyclopropyl)methyl]-3-ethyl-5-methyl-6-[(2-oxoimidazolidin-1-yl)methyl]thieno[2,3-d]pyrimidine-2,4(1H,3H)-dione (racemate)]
21 | 0.0016 | COCCn1c(=O)n(CCC(F)=C(F)F)c(=O)c2c(C)c(CN3CCNC3=O)sc21 [Example 321, 1-(2-Methoxyethyl)-5-methyl-6-[(2-oxoimidazolidin-1-yl)methyl]-3-(3,4,4-trifluorobut-3-en-1-yl)thieno[2,3-d]pyrimidine-2,4(1H,3H)-dione]
